25 molecules from US10174037B2, “Dihydropyrazolopyrimidinone compounds as PDE2 inhibitors” (Merck Sharp & Dohme Corp., priority 2015, dated 2019) can be followed below.

The structures appear in SMILES notation.

As a reminder, the Ki is a dissociation constant, usually derived from enzyme kinetics or from competition with a known ligand.

Sequence of human PDE2A1 (O00408 other isoform, or with tags, fused parts or gaps): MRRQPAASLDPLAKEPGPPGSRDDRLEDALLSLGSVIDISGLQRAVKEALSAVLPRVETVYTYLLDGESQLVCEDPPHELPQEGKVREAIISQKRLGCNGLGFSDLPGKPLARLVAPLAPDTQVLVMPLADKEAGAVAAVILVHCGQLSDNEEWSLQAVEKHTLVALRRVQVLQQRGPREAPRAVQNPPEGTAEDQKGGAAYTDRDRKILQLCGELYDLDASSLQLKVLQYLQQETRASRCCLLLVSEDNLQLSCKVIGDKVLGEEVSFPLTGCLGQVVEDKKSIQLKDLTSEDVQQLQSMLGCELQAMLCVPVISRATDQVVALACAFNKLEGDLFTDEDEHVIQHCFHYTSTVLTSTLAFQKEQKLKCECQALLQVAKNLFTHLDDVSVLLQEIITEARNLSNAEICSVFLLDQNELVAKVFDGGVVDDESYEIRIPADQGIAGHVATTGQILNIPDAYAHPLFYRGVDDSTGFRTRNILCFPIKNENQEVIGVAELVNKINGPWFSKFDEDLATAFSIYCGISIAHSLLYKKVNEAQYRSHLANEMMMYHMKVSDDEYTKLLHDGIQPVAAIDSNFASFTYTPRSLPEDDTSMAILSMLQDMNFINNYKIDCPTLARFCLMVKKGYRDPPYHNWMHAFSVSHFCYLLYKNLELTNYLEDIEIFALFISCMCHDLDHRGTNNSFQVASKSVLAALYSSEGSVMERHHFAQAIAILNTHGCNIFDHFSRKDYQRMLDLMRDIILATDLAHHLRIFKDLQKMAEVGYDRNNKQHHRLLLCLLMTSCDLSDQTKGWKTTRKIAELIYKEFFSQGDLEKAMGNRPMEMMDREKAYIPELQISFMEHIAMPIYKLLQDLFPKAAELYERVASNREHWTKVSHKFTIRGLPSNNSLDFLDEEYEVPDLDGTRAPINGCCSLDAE

This experiment concerns the target human PDE2A1 (Homo sapiens (Human), UniProt O00408). Put plainly: PDE selectivity IMAP FP assay, human PDE2A1. The experiment is classed as biochemical. The note with it: Human PDE2; Lab B; read-out: Human PDE2 Ki (nM) Lab B. On the procedure:
Selectivity for PDE2, as compared to other PDE families, was assessed using the IMAP® technology. Human PDE10A2 enzyme was prepared from cytosolic fractions of transiently transfected HEK cells.
A Labcyte POD 810 (Labcyte, Sunnyvale, Calif.) was used to dispense 200 nL from each well of the titration plate to make eleven copies of the assay plate for each titration, one copy for each PDE enzyme. A solution of each enzyme (dilution from aliquots, sufficient to produce 20% substrate conversion) and a separate solution of FAM-labeled cAMP or FAM-labeled cGMP from Molecular Devices (Sunnyvale, Calif., product # R7506 or cGMP#R7508), at a final concentration of 50 nM were made in the assay buffer (10 mM Tris HCl, pH 7.2, 10 mM MgCl2, 0.05% NaN3 0.01% Tween-20, and 1 mM DTT). Note that the substrate for PDE2 is 50 nM FAM cAMP containing 1000 nM of cGMP. The enzyme and the substrate were then added to the assay plates in two consecutive additions of 10 μL and then shaken to mix. The reaction was allowed to proceed at room temperature for 60 minutes. A binding solution was then made from the kit components, comprised of 80% Solution A, 20% Solution B and binding reagent at a volume of 1/600 the total binding solution. The enzymatic reaction was stopped by addition of 60 μL of the binding solution to each well of the assay plate. […] The plates were incubated at room temperature for one hour, then the parallel and perpendicular fluorescence was measured using a Tecan Genios Pro plate reader (Tecan, Switzerland). […] The intrinsic PDE2 inhibitory activity of a compound which may be used in accordance with the present invention may be determined by these assays. […]
The PDE2 Ki is a measure of the ability of the test compound to inhibit the action of the PDE2 enzyme.
Turning to `CC[C@@H](O)c1nn([C@@H](C)c2ccc(C(F)(F)F)cc2)c2nc(O)[nH]c(=O)c12` (mixture of isomers) [Example 294, (R,S)- and (R,R)- and (S,S)- and (S,R)-6-Hydroxy-3-(1-hydroxypropyl)-1-(1-(4-(trifluoromethyl)phenyl)ethyl)-1H-pyrazolo[3,4-d]pyrimidin-4(5H)-one], the Ki was 105 nM.

On to `CC[C@@H](O)c1nn([C@@H](C)c2ccc(C(F)(F)F)cc2)c2nc(O)[nH]c(=O)c12` (mixture of isomers) [Example 295, (R,S)- and (R,R)- and (S,S)- and (S,R)-6-Hydroxy-3-(1-hydroxypropyl)-1-(1-(4-(trifluoromethyl)phenyl)ethyl)-1H-pyrazolo[3,4-d]pyrimidin-4(5H)-one], for which the Ki was 168 nM.

Turning to `CC1(C(c2ccc(C(F)(F)F)cc2)n2nc(CO)c3c(=O)[nH]c(O)nc32)CC1` (single isomer, unassigned) [Example 4], the Ki turned out to be 342 nM.

For the molecule `CC1(C(c2ccc(C(F)(F)F)c(F)c2)n2nc(CO)c3c(=O)[nH]c(O)nc32)CC1` (single isomer, unassigned) [Example 16], the Ki amounted to 702 nM.

Consider `CC1(C(c2ccc(C(F)(F)F)c(F)c2)n2nc(CO)c3c(=O)[nH]c(O)nc32)CC1` (single isomer, unassigned) [Example 17], for which the Ki was 55 nM.

As for `CC(c1ccc(C(F)(F)C(F)(F)F)cc1)n1nc(CO)c2c(=O)[nH]c(O)nc21` (single isomer, unassigned) [Example 31, (R)- or (S)-6-Hydroxy-3-(hydroxymethyl)-1-(1-(4-(perfluoroethyl)phenyl)ethyl)-1H-pyrazolo[3,4-d]pyrimidin-4(5H)-one], the Ki was 50 nM.

As to `CC(c1ccc(C(F)(F)C(F)(F)F)cc1)n1nc(CO)c2c(=O)[nH]c(O)nc21` (single isomer, unassigned) [Example 32, (S)- or (R)-6-Hydroxv-3-(hydroxymethyl)-1-(1-(4-(perfluoroethyl)phenyl)ethyl)-1H-pyrazolo[3,4-d]pyrimidin-4(5H)-one], the Ki is ~1900 nM.

Regarding `CN(C)c1nc2c(c(CO)nn2C(c2ccc(C(F)F)cc2)C2CC2)c(=O)[nH]1` (single isomer, unassigned) [Example 63], the inhibition constant (Ki) amounted to 3.2 nM.

Take `CC(c1ccc(C(C)(C)C)cc1)n1nc(CO)c2c(=O)[nH]c(N(C)C)nc21` (single isomer, unassigned) [Example 67, (S)- or (R)-1-(1-(4-tert-Butylphenyl)ethyl)-6-(dimethylamino)-3-(hydroxymethyl)-1H-pyrazolo[3,4-d]pyrimidin-4(5H)-one]: the Ki came out at 0.25 nM.

Turning to `CC(c1ccc(CC(F)(F)F)cc1)n1nc(CO)c2c(=O)[nH]c(N(C)C)nc21` (single isomer, unassigned) [Example 70, (R)- or (S)-6-(Dimethylamino)-3-(hydroxymethyl)-1-(1-(4-(2,2,2-trifluoroethyl)phenyl)ethyl)-1H-pvrazolo[3,4-d]pyrimidin-4(5H)-one], the Ki worked out at 4.1 nM.

Consider `CCC(c1ccc(C(F)(F)F)cc1)n1nc(CO)c2c(=O)[nH]c(N(C)C)nc21` (single isomer, unassigned) [Example 72, (R)- or (S)-6-(Dimethylamino)-3-(hydroxymethyl)-1-(1-(4-(trifluoromethyl)phenyl)propyl)-1H-pyrazolo[3,4-d]pyrimidin-4(5H)-one], for which the Ki is 2.9 nM.

For `CC(c1ccc(C(F)(F)F)cc1F)n1nc(CO)c2c(=O)[nH]c(N(C)C)nc21` (single isomer, unassigned) [Example 80, (R)- or (S)-6-(Dimethylamino)-1-(1-(2-fluoro-4-(trifluoromethyl)phenyl)ethyl)-3-(hydroxymethyl)-1H-pyrazolo[3,4-d]pyrimidin-4(5H)-one], the Ki amounted to 25 nM.

On to `CC(c1ccc(C(F)F)cc1)n1nc(CO)c2c(=O)[nH]c(N(C)C)nc21` (single isomer, unassigned) [Example 82, (R)- or (S)-1-(1-(4-(Difluoromethyl)phenyl)ethyl)-6-(dimethylarnino)-3-(hydroxymethyl)-1H-pyrazolo[3,4-d]pyrimidin-4(5H)-one], for which the Ki was determined as 35 nM.

Take `CC(C)C(c1ccc(CC(F)(F)F)cc1)n1nc(CO)c2c(=O)[nH]c(N(C)C)nc21` (single isomer, unassigned) [Example 89, (S)- or (R)-6-(Dimethylamino)-3-(hydroxymethyl)-1-(2-methyl-1-(4-(2,2,2-trifluoroethyl)phenyl)propyl)-1H-pyrazolo[3,4-d]pyrimidin-4(5H)-one]: the Ki amounted to 0.21 nM.

Consider `CCC(c1ccc(C(F)F)cc1)n1nc(CO)c2c(=O)[nH]c(N(C)C)nc21` (single isomer, unassigned) [Example 92, (R)- or (S)-1-(1-(4-(Difluoromethyl)phenyl)propyl)-6-(dimethylamino)-3-(hydroxymethyl)-1H-pyrazolo[3,4-d]pyrimidin-4(5H)-one], for which the Ki was 8.4 nM.

Consider `CCC(c1ccc(CC(F)(F)F)cc1)n1nc(CO)c2c(=O)[nH]c(N(C)C)nc21` (single isomer, unassigned) [Example 98, (R)- or (S)-6-(Dimethylamino)-3-(hydroxymethyl)-1-(1-(4-(2,2,2-trifluoroethyl)phenyl)propyl)-1H-pyrazolo[3,4-d]pyrimidin-4(5H)-one], for which the inhibition constant Ki was 1.3 nM.

With `CCC(c1ccc(CC(F)(F)F)cc1)n1nc(CO)c2c(=O)[nH]c(N(C)C)nc21` (single isomer, unassigned) [Example 99, (S)- or (R)-6-(Dimethyiamino)-3-(hydroxymethyl)-1-(1-(4-(2,2,2-trifluoroethyl)phenyl)propyl)-1H-pyrazolo[3,4-d]pyrimidin-4(5H)-one], the Ki was 0.31 nM.

With `CC(c1ccc(C(C)(F)F)cc1)n1nc(CO)c2c(=O)[nH]c(N(C)C)nc21` (single isomer, unassigned) [Example 102, (R)- or (S)-1-(1-(4-(1,1-Difluoroethyl)phenyl)ethyl)-6-(dimethylamino)-3-(hydroxymethyl)-1H-pyrazolo[3,4-d]pyrimidin-4(5H)-one], the Ki is 9.9 nM.

As for `CC(c1ccc(C(F)F)c(F)c1)n1nc(CO)c2c(=O)[nH]c(N(C)C)nc21` (single isomer, unassigned) [Example 104, (R)- or (S)-1-(1-(4-(Difluoromethyl)-3-fluorophenyl)ethyl)-6-(dimethylamino)-3-(hydroxymethyl)-1H-pyrazolo[3,4-d]pyrimidin-4(5H)-one], the Ki turned out to be 40 nM.

Consider `CC(c1ccc(C(C)(F)F)cc1F)n1nc(CO)c2c(=O)[nH]c(N(C)C)nc21` (single isomer, unassigned) [Example 109, (S)- or (R)-1-(1-(4-(1,1-Difluoroethyl)-2-fluorophenyl)ethyl)-6-(dimethylamino)-3-(hydroxymethyl)-1H-pyrazolo[3,4-d]pyrimidin-4(5H)-one], for which the Ki was determined as 8 nM.

As to `CCC(c1ccc(C(C)(F)F)cc1F)n1nc(CO)c2c(=O)[nH]c(N(C)C)nc21` (single isomer, unassigned) [Example 110, (R)- or (S)-1-(1-(4-(1,1-Difluoroethyl)-2-fluorophenyl)propyl)-6-(dimethylamino)-3-(hydroxymethyl)-1H-pyrazolo[3,4-d]pyrimidin-4(5H)-one], the Ki came to 2.8 nM.

On to `CC(C)C(c1ccc(C(F)F)c(F)c1)n1nc(CO)c2c(=O)[nH]c(N(C)C)nc21` (single isomer, unassigned) [Example 115, (R)- or (S)-1-(1-(4-(Difluoromethyl)-3-fluorophenyl)-2-methylpropyl)-6-(dimethylamino)-3-(hydroxymethyl)-1H-pyrazolo[3,4-d]pyrimidin-4(5H)-one], for which the Ki turned out to be 0.21 nM.

With `CCC(c1ccc(OC(F)F)cc1)n1nc(CO)c2c(=O)[nH]c(N(C)C)nc21` (single isomer, unassigned) [Example 125, (S)- or (R)-1-(1-(4-(Difluoromethoxy)phenyl)propyl)-6-(dimethylamino)-3-(hydroxymethyl)-1H-pyrazolo[3,4-d]pyrimidin-4(5H)-one], the Ki amounted to 2.4 nM.

As for `CCC(c1ccc(C(F)(F)F)cc1F)n1nc(CO)c2c(=O)[nH]c(N(C)C)nc21` (single isomer, unassigned) [Example 131, (S)- or (R)-6-(Dimethylamino)-1-(1-(2-fluoro-4-(trifluoromethyl)phenyl)propyl)-3-(hydroxymethyl)-1H-pyrazolo[3,4-d]pyrimidin-4(5H)-one], the Ki is 3.9 nM.

Regarding `CCC(c1ccc(C(C)(F)F)cc1)n1nc(CO)c2c(=O)[nH]c(N(C)C)nc21` (single isomer, unassigned) [Example 136, (R)- or (S)-1-(1-(4-(1,1-Difluoroethyl)phenyl)propyl)-6-(dimethylamino)-3-(hydroxymethyl)-1H-pyrazolo[3,4-d]pyrimidin-4(5H)-one], the Ki turned out to be 1.9 nM.
